# Assay results: article PMC7771553 (Journal of medicinal chemistry, 2017)
# Entries after “also recorded” stand apart in the source; their conditions may differ. Read-outs that look alike come from different tables or passages of the source.
# Assays:
# [1] = system: MDA-MB-231 cells; assay type: in vitro ADME; settings: for nonspecific binding, 4 °C incubation (decrease of intracellular concentration): 6 h, compared with direct solvent extraction
# [2] = system: bromodomains; settings: cited from earlier work
# [3] = Cell-absent control: nonspecific binding with the cell culture plate; assay type: in vitro ADME; settings: input 10, 20, 2, 20 μM for 1–4
# [4] = system: MDA-MB-231 cells; settings: for dose dependence of the cellular uptake: 10% FBS (1 and 2) or 5% FBS (3 and 4); for intracellular concentration relative to the input concentration: 24 h, volume of one million cells about 5.5 μL; for incubation time to maximum intracellular concentration: MDA-MB-231 cells; for intracellular moles relative to that of 4: 5% FBS
# [5] = Parallel artificial membrane permeability assay; assay type: in vitro ADME; settings: PAMPA
# [6] = system: MDA-MB-231 cells; settings: MDA-MB-231, 24 h; input 10, 20, 2, 20 μM for 1–4
# [7] = Stability in DMEM media with or without 10% FBS; assay type: physicochemical; settings: 72 h, negligible difference between samples with and without serum
SMILES,"nonspecific binding, 4 °C incubation (decrease of intracellular concentration) [1]",inhibitory activities in cell-based NanoBRET assays [2],"nonspecific binding to the plates, percent of input concentration [3]",dose dependence of the cellular uptake ([4]; 6 h),"intracellular concentration relative to the input concentration ([4]; input 10, 20, 2, 20 μM for 1–4)",incubation time to maximum intracellular concentration [4],also measured
"CC(=O)c1cc(-c2cc(C(=O)NC3CC3)ccc2C)c2ncccn12 [Compound 1, TP-472, reference compound]",77%,submicromolar,1%,first order,–,–,permeability through the artificial membrane [5]: good permeability
"Cc1cc2c(cc1N1C(=O)c3cccc4c(CCCO)ccc(c34)C1=O)n(C)c(=O)n2C [Compound 2, BAY-299, reference compound]",–,submicromolar,–,first order,–,–,"increase in inhibitor cellular uptake ([4]; 10-time increase in the input concentration (20–200 μM), 6 h): 13 times; cellular uptake (percent of the compound accumulated in the cells) [6]: < 1%"
Cl.Cl.O=C(Nc1ccc(O[C@H]2CCNC2)c(-c2ccc(F)cc2)c1)c1ccc(O[C@H]2CCNC2)c(-c2ccc(F)c(F)c2)c1 [Compound 3],15%,–,–,logarithmic pattern (saturation kinetics),about 600 times,3 to 6 h,"cell permeability relative to 4 ([4]; equal input concentrations compared (Figure 6)): 1.7 times; intracellular moles relative to that of 4 ([4]; input concentration 2 μM, 6 h): 1.9 times; intracellular moles relative to that of 4 ([4]; input concentration 20 μM, 6 h): 1.5 times"
Cl.Cl.O=C(c1cc(F)cc(N2CCNCC2)c1)N1CCN(C(=O)c2ccc(O[C@H]3CCNC3)c(C3CCCCC3)c2)CC1 [Compound 4],4%,–,1%,plateaued when the input concentration was increased from 20 to 200 μM; also recorded: saturated at input concentrations >20 μM,~65 times,3 to 6 h,"rate of decrease of intracellular moles ([4]; input 20 μM, over 72 h, first order): about 85.5 ± 8.2 pmol/(million cells × h); time dependence of intracellular moles (metabolic stability in cells) ([4]; over 72 h, input 10, 20, 2, 20 μM for 1–4): less stable; compound remaining (percent of the initial concentration) [7]: about 85%"
CCOC(=O)CCCn1c2ccccc2c2nc3nonc3nc21 [Compound 8],–,–,–,–,–,–,cell-bound inhibitors at 4 °C [1]: little or no nonspecific binding
